The results in this text go back to ChEMBL document CHEMBL3881525, “Analogs of dehydrophenylahistins and their therapeutic use” (2007).

Each structure is given as a SMILES string. Active and inactive are the calls of the source.

A short description of data set [1]: Cytotoxicity against human PC3 cells assessed as reduction in cell viability measured after 48 hrs by resazurin dye-based fluorometric analysis. The format is functional. As to conditions: PC-3, 48 h.
Another data set has as its system HeLa. Kind of data set: Effect on cell cycle progression in human HeLa cells assessed as increase in 4N cells at 100 nM. The format is functional, cell-based.
The nature of data set [2]: Antiproliferative activity against taxol-resistant human MES-SA/Dx5 cells expressing MDR1 mRNA and P-gp. The format is functional, cell-based.
The target in data set [3] is T1, Tubulin (Homo sapiens) (UniProt P68371+Q9H4B7+P0DPH7+P68366+Q13509+Q71U36+P04350+Q3ZCM7+P07437+P68363+Q9BQE3+Q6PEY2+Q13885+Q9BVA1+Q9BUF5). Kind of data set: Induction of microtubule depolymerization in human CCD-27Sk cells at 2 uM measured after 30 mins. The format is cell-based.
Data set [4] has as its system Trichophyton mentagrophytes. The experiment in a line: Fungicidal activity against Trichophyton mentagrophytes isolate 1 measured after 48 hrs by broth dilution method. As to conditions: isolate 1, 48 h. The format is functional. (In general: In broth dilution the organism is exposed to a series of concentrations in liquid medium.)
Data set [5] is described as follows: Antifungal activity against Epidermophyton floccosum isolate 2 measured after 48 hrs by broth dilution method. The format is functional.
The subject of another data set is Mus musculus. Kind of data set: Antivascular activity against mouse N202 tumor spheroids expressing H2B-GFP allografted in mouse assessed as inhibition of tumor-induced central vasculature at 5 mg/kg, iv administered on day 12 as infusion for 2 mins measured on day 15 by fluorescence video microscopy. The format is functional, organism-based.
In data set [6] the target is Tubulin alpha (Homo sapiens) (UniProt P0DPH7+P68366+Q71U36+P68363+Q9BQE3+Q6PEY2+A6NHL2+Q9NY65). The experiment in a line: Induction of alpha-tubulin depolymerization in HUVEC at 200 nM measured after 30 mins by DAPI staining based indirect immunofluorescence analysis. The format is cell-based.
Data set [7] deals with Rattus norvegicus. The experiment in a line: Reduction in blood flow in rat kidney at 15 mg/kg, ip measured after 24 hrs by [125I]iodoantipyrine based method relative to vehicle control. As to conditions: in vivo. The format is ADME, organism-based.
The test system of data set [8] is Rattus norvegicus. Kind of data set: Reduction in blood flow in rat heart at 15 mg/kg, ip measured after 24 hrs by [125I]iodoantipyrine based method relative to vehicle control. The format is ADME, organism-based. The note with it: in vivo.
The subject of data set [9] is Rattus norvegicus. Kind of data set: Increase in blood flow in rat skeletal muscle at 15 mg/kg, ip measured after 24 hrs by [125I]iodoantipyrine based method relative to vehicle control. The format is ADME, organism-based. As to conditions: in vivo.
The subject of a further data set is P22. The experiment in a line: Induction of necrosis in rat P22 cells implanted in rat compound administered intraperitoneally measured after 24 hrs post dose. The format is functional, cell-based.
Data set [10] has as its target T1, Tubulin (Homo sapiens). Kind of data set: Induction of microtubule instability in human MCF7 cells assessed as mean shortening rate at IC25 for mitotic block measured after 20 hrs by immunofluorescence analysis. The format is cell-based.
Data set [11] has as its target RAF proto-oncogene serine/threonine-protein kinase (Homo sapiens) (UniProt P04049). The note with it: 10 uM.
Description: Inhibition of human c-RAF at 10 uM in presence of ATP
In data set [12] the target is Mitogen-activated protein kinase 10 (Rattus norvegicus) (UniProt P49187). As to conditions: 10 uM.
Sequence of Mitogen-activated protein kinase 10 (Rattus norvegicus) (P49187 whole entry): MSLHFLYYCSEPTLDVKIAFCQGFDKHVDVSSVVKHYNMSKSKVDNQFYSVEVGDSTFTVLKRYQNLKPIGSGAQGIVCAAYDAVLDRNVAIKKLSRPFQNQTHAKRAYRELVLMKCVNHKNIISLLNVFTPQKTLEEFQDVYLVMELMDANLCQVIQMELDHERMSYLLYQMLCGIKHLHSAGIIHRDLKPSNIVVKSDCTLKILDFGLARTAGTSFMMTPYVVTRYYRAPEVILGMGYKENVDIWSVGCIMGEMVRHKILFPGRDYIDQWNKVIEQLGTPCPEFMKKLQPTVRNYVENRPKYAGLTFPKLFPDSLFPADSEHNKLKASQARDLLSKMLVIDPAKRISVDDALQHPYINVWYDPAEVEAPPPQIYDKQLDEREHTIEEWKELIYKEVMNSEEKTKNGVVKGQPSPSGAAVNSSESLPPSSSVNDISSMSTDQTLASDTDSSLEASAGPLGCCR
Description: Inhibition of rat JNK3 at 10 uM in presence of ATP

Sequence of RAF proto-oncogene serine/threonine-protein kinase (Homo sapiens) (P04049 whole entry): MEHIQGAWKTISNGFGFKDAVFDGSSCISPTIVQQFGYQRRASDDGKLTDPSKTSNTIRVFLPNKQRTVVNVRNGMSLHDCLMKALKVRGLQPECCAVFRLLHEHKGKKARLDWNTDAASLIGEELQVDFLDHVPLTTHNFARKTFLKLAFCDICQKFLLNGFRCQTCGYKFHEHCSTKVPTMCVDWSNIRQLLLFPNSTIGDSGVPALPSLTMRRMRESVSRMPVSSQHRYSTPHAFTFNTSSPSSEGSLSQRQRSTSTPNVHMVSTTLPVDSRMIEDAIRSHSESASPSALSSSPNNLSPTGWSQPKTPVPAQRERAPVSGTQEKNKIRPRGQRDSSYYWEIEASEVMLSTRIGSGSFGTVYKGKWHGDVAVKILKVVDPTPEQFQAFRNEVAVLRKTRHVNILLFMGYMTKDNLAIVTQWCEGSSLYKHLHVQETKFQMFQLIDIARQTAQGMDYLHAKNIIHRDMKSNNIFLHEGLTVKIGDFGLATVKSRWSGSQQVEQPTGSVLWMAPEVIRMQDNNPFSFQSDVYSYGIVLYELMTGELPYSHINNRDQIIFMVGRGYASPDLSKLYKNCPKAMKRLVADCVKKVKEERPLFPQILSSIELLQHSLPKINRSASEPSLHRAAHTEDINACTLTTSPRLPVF

Usually EC50 stands for the concentration that produces a half-maximal response. A word on the IC50: it is the point on the concentration scale where inhibition reaches its midpoint. Low readings indicate greater potency in that assay, high ones weaker potency in that assay. As usually defined, the MFC is the smallest concentration meeting the test's criterion for killing the fungus. A word on the MIC: it is the smallest concentration in the dilution series that meets the test's criterion for growth inhibition. A higher MIC goes with a less susceptible organism. What is called inhibition is the relative decrease from the control value, in per cent. In the case of `CC(C)(C)c1[nH]cnc1/C=c1\[nH]c(=O)/c(=C/c2ccccc2)[nH]c1=O` [PLINABULIN], in [1], the concentration for a half-maximal effect (EC50) fell in the range of 1 to 13.4 nM. Also, the outcome (in the data set on HeLa; on Tubulin (Homo sapiens) [3]; in [6]) was Active. Besides, the IC50 in data set [2] lay in the range of 10.5 to 23 nM. The compound further displayed a minimal fungicidal concentration (MFC) in data set [4] of over 16 µg/mL. In addition, the minimum inhibitory concentration (MIC) in data set [5] is over 16 µg/mL. In addition, the inhibition entry in the data set with Mus musculus was “Active”. In addition, the Activity result was “Toxic” with Rattus norvegicus [7]; “Toxic” in the data set on Rattus norvegicus [8]; “Toxic” in the data set with Rattus norvegicus [9]; “Dose-dependent effect” with P22; 31.9 um/min at Tubulin (Homo sapiens) [10]. For the same compound, the inhibition in data set [11] and in data set [12] was over 50% throughout.
